Results as given in patent publication US5688938A, “Calcium receptor-active molecules” (priority 1995, dated 1997).
pEC50: −log10 of the molar value.

How the values were obtained:
[1] = biological target: T1, parathyroid cell calcium receptor (Homo sapiens, UniProt P41180); experiment: [Ca^2+]i (fura-2) in human parathyroid cells; format: cell-based
T1 construct: Dissociated parathyroid cells were prepared from a parathyroid adenoma obtained by surgery from a patient with primary hyperparathyroidism; endogenous in cells; host or cells: primary dissociated human parathyroid cells (adenoma or hyperplastic tissue from surgery)
T1 sequence (P41180 20-1078): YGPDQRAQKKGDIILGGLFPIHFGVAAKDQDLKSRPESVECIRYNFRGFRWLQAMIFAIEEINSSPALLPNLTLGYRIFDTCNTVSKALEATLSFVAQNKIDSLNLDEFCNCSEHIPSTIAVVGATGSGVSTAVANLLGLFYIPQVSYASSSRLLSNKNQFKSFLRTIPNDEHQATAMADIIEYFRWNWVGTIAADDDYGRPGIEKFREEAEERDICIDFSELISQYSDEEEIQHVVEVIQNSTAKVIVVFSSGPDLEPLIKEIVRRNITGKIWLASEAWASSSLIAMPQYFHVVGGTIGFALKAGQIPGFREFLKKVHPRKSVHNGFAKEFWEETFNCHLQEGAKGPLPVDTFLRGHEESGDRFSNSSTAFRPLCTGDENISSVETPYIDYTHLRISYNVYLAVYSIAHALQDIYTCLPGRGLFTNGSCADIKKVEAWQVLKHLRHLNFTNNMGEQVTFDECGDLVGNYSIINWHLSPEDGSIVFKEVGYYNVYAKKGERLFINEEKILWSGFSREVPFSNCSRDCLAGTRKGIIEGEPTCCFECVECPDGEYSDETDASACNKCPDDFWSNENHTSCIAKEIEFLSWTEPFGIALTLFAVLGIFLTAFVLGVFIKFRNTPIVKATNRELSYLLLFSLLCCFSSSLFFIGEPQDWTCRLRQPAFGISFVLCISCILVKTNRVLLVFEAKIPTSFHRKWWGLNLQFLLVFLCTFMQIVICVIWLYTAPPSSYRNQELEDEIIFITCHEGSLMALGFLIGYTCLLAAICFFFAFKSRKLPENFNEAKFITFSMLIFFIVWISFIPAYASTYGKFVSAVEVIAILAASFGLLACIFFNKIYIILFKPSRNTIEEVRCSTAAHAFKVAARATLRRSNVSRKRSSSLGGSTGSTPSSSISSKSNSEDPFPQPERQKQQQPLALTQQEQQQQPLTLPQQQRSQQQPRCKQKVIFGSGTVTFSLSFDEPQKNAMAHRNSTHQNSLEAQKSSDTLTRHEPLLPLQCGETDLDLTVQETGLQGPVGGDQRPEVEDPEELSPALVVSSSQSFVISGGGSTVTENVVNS
Description: This section describes procedures used to obtain and treat parathyroid cells from calves and humans. […] Human parathyroid glands, were obtained from patients undergoing surgical removal of parathyroid tissue for primary or uremic hyperparathyroidism (uremic HPT), and were treated similarly to bovine tissue.
Dissociated parathyroid cells were prepared from a parathyroid adenoma obtained by surgery from a patient with primary hyperparathyroidism.

bovine parathyroid cells = experiment: PTH secretion from bovine parathyroid cells; format: cell-based
Description: In most experiments, cells loaded with fura-2 were also used in studies of PTH secretion.
PTH secretion was measured by first suspending cells in PCB containing 0.5 mM CaCl2 and 0.1% BSA.

[2] = hypocalcemic response in thyroidectomized rats; format: in vivo, rat; details: 3 to 100 mg/kg p.o.
Description: In subsequent studies, rats received a thyroidectomy (parathyroid glands intact). This surgical procedure effectively removed the C-cells secreting calcitonin and therefore enabled the relative contributions of PTH and calcitonin to the hypocalcemic effect of this compound to be determined. […] The only difference was that the rate of onset of the hypocalcemic response was somewhat delayed in thyroidectomized animals. […] Stimulatory effects of this compound on calcitonin secretion increases the rate of onset, but not the extent, of hypocalcemia.

[3] = single oral doses of NPS R-568 in a healthy post-menopausal person; format: in vivo, human
Description: A range of single oral doses was used to assess safety, tolerance, and changes in primary hyperparathyroidism markers (e.g., plasma concentrations of parathyroid hormone and ionized serum calcium) and of serum calcitonin.

[4] = serum/plasma Ca^2+, PTH and calcitonin in rats, oral; format: in vivo; details: rat, oral
Description: Rats (male, Sprague-Dawley, 250-300 g) were fed standard rat chow and fasted overnight prior to the experiment. NPS R-467 was suspended in corn oil and administered as a single oral dose through a gavage needle. Three hours later a sample of blood was taken from the tail vein and assessed for ionized Ca^2+ levels.

[5] = serum ionized Ca^2+ in parathyroidectomized rats; format: in vivo, rat; details: oral
Description: To determine the primary target tissue upon which NPS R-467 acts to cause a hypocalcemic response, the parathyroid glands in rats were surgically removed. Animals receiving a total parathyroidectomy become hypocalcemic and are largely dependent upon dietary calcium to maintain serum Ca^2+ homeostasis.
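Wherever Serum Calcitonin is given: serum calcitonin in pg/mL.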

With `NC[C@@H]1O[C@H](O[C@H]2[C@@H](O)[C@H](O[C@@H]3[C@@H](O)[C@H](N)C[C@H](N)[C@H]3O[C@H]3O[C@H](CN)[C@@H](O)[C@H](O)[C@H]3N)O[C@@H]2CO)[C@H](N)[C@@H](O)[C@@H]1O` [Neomycin] the “increase in [Ca^2+]i” value ([1]; 20 μM) was “large increase in [Ca^2+ ]i”, the “increases in [Ca^2+]i” value ([1]; human adenoma cells) was “not only a transient, but additionally a steady-state increase in [Ca^2+ ]i” and the pEC50 ([1]; human parathyroid cells) was 4.70. The “inhibition of PTH secretion” value (bovine parathyroid cells) was “inhibited PTH secretion to the same extent as extracellular Ca^2+”.

For `COc1cccc([C@@H](C)NCCCc2ccccc2Cl)c1` [NPS R-568, (R)-(+)-N-[3-(2-chlorophenyl)propyl]-α-methyl-3-methoxybenzylamine], the “hypocalcemic response in thyroidectomized animals” value [2] was “hypocalcemic response equal in magnitude to that produced in sham-operated animals”, the “Serum Calcitonin” value ([3]; 20 mg oral, 0 h) was 3.2 pg/mL and the Serum Ionized Calcium ([3]; 20 mg oral, 0 h) was 1.26 mM. The “Serum PTH” value ([3]; 20 mg oral, 0 h) was 31 pg/mL, the “Serum Calcitonin” value ([3]; 20 mg oral, 0.5 h) was 3.8 pg/mL and the Serum Ionized Calcium ([3]; 20 mg oral, 0.5 h) was 1.26 mM. For the same molecule, the “Serum PTH” value ([3]; 20 mg oral, 0.5 h) was 23 pg/mL, the “Serum Calcitonin” value ([3]; 20 mg oral, 1 h) was 3.2 pg/mL and the Serum Ionized Calcium ([3]; 20 mg oral, 1 h) was 1.26 mM. For the same molecule, the “Serum PTH” value ([3]; 20 mg oral, 1 h) was 18 pg/mL, the “Serum Calcitonin” value ([3]; 20 mg oral, 2 h) was 4.5 pg/mL and the Serum Ionized Calcium ([3]; 20 mg oral, 2 h) was 1.26 mM. The “Serum PTH” value ([3]; 20 mg oral, 2 h) was 24 pg/mL, the “Serum Calcitonin” value ([3]; 20 mg oral, 4 h) was 4.2 pg/mL and the Serum Ionized Calcium ([3]; 20 mg oral, 4 h) was 1.26 mM. The “Serum PTH” value ([3]; 20 mg oral, 4 h) was 34 pg/mL, the “Serum Calcitonin” value ([3]; 20 mg oral, 8 h) was 3.9 pg/mL and the Serum Ionized Calcium ([3]; 20 mg oral, 8 h) was 1.26 mM. For the same molecule, the “Serum PTH” value ([3]; 20 mg oral, 8 h) was 34 pg/mL, the “Serum Calcitonin” value ([3]; 20 mg oral, 12 h) was 3.2 pg/mL and the Serum Ionized Calcium ([3]; 20 mg oral, 12 h) was 1.23 mM. The “Serum PTH” value ([3]; 20 mg oral, 12 h) was 48 pg/mL, the “Serum Calcitonin” value ([3]; 20 mg oral, 24 h) was 3.6 pg/mL and the Serum Ionized Calcium ([3]; 20 mg oral, 24 h) was 1.29 mM. For the same molecule, the “Serum PTH” value ([3]; 20 mg oral, 24 h) was 32 pg/mL, the “Serum Calcitonin” value ([3]; 240 mg oral, 0 h) was 5.8 pg/mL and the Serum Ionized Calcium ([3]; 240 mg oral, 0 h) was 1.26 mM. For the same molecule, the “Serum PTH” value ([3]; 240 mg oral, 0 h) was 29 pg/mL, the “Serum Calcitonin” value ([3]; 240 mg oral, 0.5 h) was 4.8 pg/mL and the Serum Ionized Calcium ([3]; 240 mg oral, 0.5 h) was 1.26 mM. For the same molecule, the “Serum PTH” value ([3]; 240 mg oral, 0.5 h) was 18 pg/mL, the “Serum Calcitonin” value ([3]; 240 mg oral, 1 h) was 6.5 pg/mL and the Serum Ionized Calcium ([3]; 240 mg oral, 1 h) was 1.25 mM. For the same molecule, the “Serum PTH” value ([3]; 240 mg oral, 1 h) was 6 pg/mL, the “Serum Calcitonin” value ([3]; 240 mg oral, 2 h) was 7.5 pg/mL and the Serum Ionized Calcium ([3]; 240 mg oral, 2 h) was 1.23 mM. For the same molecule, the “Serum PTH” value ([3]; 240 mg oral, 2 h) was 6 pg/mL, the “Serum Calcitonin” value ([3]; 240 mg oral, 4 h) was 6.1 pg/mL and the Serum Ionized Calcium ([3]; 240 mg oral, 4 h) was 1.19 mM. The “Serum PTH” value ([3]; 240 mg oral, 4 h) was 10 pg/mL, the “Serum Calcitonin” value ([3]; 240 mg oral, 8 h) was 4.7 pg/mL and the Serum Ionized Calcium ([3]; 240 mg oral, 8 h) was 1.16 mM. The “Serum PTH” value ([3]; 240 mg oral, 8 h) was 27 pg/mL, the “Serum Calcitonin” value ([3]; 240 mg oral, 12 h) was 5.3 pg/mL and the Serum Ionized Calcium ([3]; 240 mg oral, 12 h) was 1.18 mM. The “Serum PTH” value ([3]; 240 mg oral, 12 h) was 35 pg/mL, the “Serum Calcitonin” value ([3]; 240 mg oral, 24 h) was 8.3 pg/mL and the Serum Ionized Calcium ([3]; 240 mg oral, 24 h) was 1.23 mM. For the same molecule, the “Serum PTH” value ([3]; 240 mg oral, 24 h) was 34 pg/mL, the “Serum Calcitonin” value ([3]; 400 mg oral, 0 h) was 3.4 pg/mL and the Serum Ionized Calcium ([3]; 400 mg oral, 0 h) was 1.24 mM. For the same molecule, the “Serum PTH” value ([3]; 400 mg oral, 0 h) was 33 pg/mL, the “Serum Calcitonin” value ([3]; 400 mg oral, 0.5 h) was 4.0 pg/mL and the Serum Ionized Calcium ([3]; 400 mg oral, 0.5 h) was 1.26 mM. For the same molecule, the “Serum PTH” value ([3]; 400 mg oral, 0.5 h) was 13 pg/mL, the “Serum Calcitonin” value ([3]; 400 mg oral, 1 h) was 6.0 pg/mL and the Serum Ionized Calcium ([3]; 400 mg oral, 1 h) was 1.25 mM. The “Serum PTH” value ([3]; 400 mg oral, 1 h) was 9 pg/mL, the “Serum Calcitonin” value ([3]; 400 mg oral, 2 h) was 7.1 pg/mL and the Serum Ionized Calcium ([3]; 400 mg oral, 2 h) was 1.22 mM. The “Serum PTH” value ([3]; 400 mg oral, 2 h) was 8 pg/mL, the “Serum Calcitonin” value ([3]; 400 mg oral, 4 h) was 5.2 pg/mL and the Serum Ionized Calcium ([3]; 400 mg oral, 4 h) was 1.19 mM. For the same molecule, the “Serum PTH” value ([3]; 400 mg oral, 4 h) was 11 pg/mL, the “Serum Calcitonin” value ([3]; 400 mg oral, 8 h) was 3.8 pg/mL and the Serum Ionized Calcium ([3]; 400 mg oral, 8 h) was 1.13 mM. The “Serum PTH” value ([3]; 400 mg oral, 8 h) was 20 pg/mL, the “Serum Calcitonin” value ([3]; 400 mg oral, 12 h) was 3.7 pg/mL and the Serum Ionized Calcium ([3]; 400 mg oral, 12 h) was 1.15 mM. The “Serum PTH” value ([3]; 400 mg oral, 12 h) was 31 pg/mL, the “Serum Calcitonin” value ([3]; 400 mg oral, 24 h) was 3.0 pg/mL and the Serum Ionized Calcium ([3]; 400 mg oral, 24 h) was 1.22 mM. For the same molecule, the “Serum PTH” value ([3]; 400 mg oral, 24 h) was 31 pg/mL, the “effect on serum ionized calcium (summary)” value ([3]; human, higher oral doses) was “decrease in serum ionized calcium concentration” and the “effect on plasma PTH (summary)” value ([3]; human, oral) was “transient dose-dependent decrease in plasma PTH concentration”. The “effect on serum calcitonin (summary)” value ([3]; human, oral) was “no apparent change in serum calcitonin”, the “hypocalcemic response after prior complete nephrectomy” value [4] was “only marginally affected” and the “hypocalcemic response in parathyroidectomized rats” value [5] was “fails to elicit a hypocalcemic response”.
